Assay results as given in the OligoGym collection.
After the bases stand the sugars from the 5' end (letter, count) and the backbone: PS all phosphorothioate, else s phosphorothioate and o phosphodiester by linkage. Methylation of C is not given here. l = locked nucleic acid (LNA); d = 2'-deoxy (DNA)

Target: SNHG14
Conditions: ASO

Sequence: CCCTTATAGTTATTAA (sugars l3 d10 l3, PS)
- target mRNA inhibition (Human Neuronal Cell, 0.2 µM): 26%
- target mRNA inhibition (Human Neuronal Cell, 1 µM): 13%

Sequence: ATTGATTCAATTCCCTT (sugars ldldddddddddldlll, PS)
- target mRNA inhibition (Human Neuronal Cell, 7.5 µM): 54%

Sequence: ATTTACACTTAATTATACTT (sugars lllldllddddddlldddll, PS)
- target mRNA inhibition (Human Neuronal Cell, 7.5 µM): 38%

Sequence: AGCATTCAACCCTAAT (sugars l4 d10 l2, PS)
- target mRNA inhibition (Human Neuronal Cell, 0.2 µM): 52%
- target mRNA inhibition (Human Neuronal Cell, 1 µM): 60%

Sequence: TGAAAATCTCAACTACCAT (sugars lddddlddddddldlldll, PS)
- target mRNA inhibition (Human Neuronal Cell, 7.5 µM): 42%

Sequence: TACACTTAATTATACTTCCA (sugars lddlddlddddddlddddll, PS)
- target mRNA inhibition (Human Neuronal Cell, 7.5 µM): 61%

Sequence: GTTCTACTATACTTTCCTC (sugars l1 d14 l1 d1 l2, PS)
- target mRNA inhibition (Human Neuronal Cell, 7.5 µM): 54%

Sequence: AATTTTTTTCTTACTATCTT (sugars ldlllldddddddlddddll, PS)
- target mRNA inhibition (Human Neuronal Cell, 7.5 µM): 55%

Sequence: TCTTACTCTGACTTTCC (sugars l2 d12 l3, PS)
- target mRNA inhibition (Human Neuronal Cell, 0.2 µM): 68%
- target mRNA inhibition (Human Neuronal Cell, 1 µM): 71%

Sequence: ATTCTTACCGTCTTTA (sugars l4 d10 l2, PS)
- target mRNA inhibition (Human Neuronal Cell, 0.2 µM): 49%
- target mRNA inhibition (Human Neuronal Cell, 1 µM): 60%

Sequence: TTTTAACCAGAGTGGCATC (sugars l4 d13 l2, PS)
- target mRNA inhibition (Human Neuronal Cell, 7.5 µM): 45%

Sequence: TCAGCTTTTAACCAGAGTGG (sugars l2 d16 l2, PS)
- target mRNA inhibition (Human Neuronal Cell, 7.5 µM): 70%

Sequence: TAAAATTATTTATACACCAT (sugars lddlddlddddddlldllll, PS)
- target mRNA inhibition (Human Neuronal Cell, 7.5 µM): 2%

Sequence: CAACTCTATGACTACC (sugars l2 d10 l4, PS)
- target mRNA inhibition (Human Neuronal Cell, 0.2 µM): 46%
- target mRNA inhibition (Human Neuronal Cell, 1 µM): 36%

Sequence: TCACTGCCATCAATAC (sugars l4 d10 l2, PS)
- target mRNA inhibition (Human Neuronal Cell, 0.2 µM): 42%
- target mRNA inhibition (Human Neuronal Cell, 1 µM): 45%

Sequence: AAACTCTTGCATCTACT (sugars l2 d13 l2, PS)
- target mRNA inhibition (Human Neuronal Cell, 0.2 µM): 19%
- target mRNA inhibition (Human Neuronal Cell, 1 µM): 41%

Sequence: GAAAATCTCAACTACCATT (sugars l2 d1 l2 d10 l4, PS)
- target mRNA inhibition (Human Neuronal Cell, 7.5 µM): 60%

Sequence: TCTTACCAATAGTTACC (sugars l4 d11 l2, PS)
- target mRNA inhibition (Human Neuronal Cell, 0.2 µM): 45%
- target mRNA inhibition (Human Neuronal Cell, 1 µM): 55%

Sequence: ATCTGCTACATATTCTT (sugars l4 d11 l2, PS)
- target mRNA inhibition (Human Neuronal Cell, 0.2 µM): 50%
- target mRNA inhibition (Human Neuronal Cell, 1 µM): 59%

Sequence: GTTTCCATCTACTATTAA (sugars l1 d11 l2 d1 l3, PS)
- target mRNA inhibition (Human Neuronal Cell, 7.5 µM): 52%

Sequence: CCATTTATTTCCATTTATT (sugars lddldddddddddlldlll, PS)
- target mRNA inhibition (Human Neuronal Cell, 7.5 µM): 59%

Sequence: GAAAATCTCAACTACCATT (sugars l2 d12 l5, PS)
- target mRNA inhibition (Human Neuronal Cell, 7.5 µM): 49%

Sequence: TTTTTATACCTTTCTTTAAC (sugars l1 d12 l1 d2 l4, PS)
- target mRNA inhibition (Human Neuronal Cell, 7.5 µM): 43%

Sequence: GCAACATTATTAACCACCT (sugars ldddddddddddldlddll, PS)
- target mRNA inhibition (Human Neuronal Cell, 7.5 µM): 41%

Sequence: TTTGACATTCCATCTC (sugars l3 d10 l3, PS)
- target mRNA inhibition (Human Neuronal Cell, 0.2 µM): 56%
- target mRNA inhibition (Human Neuronal Cell, 1 µM): 59%

Sequence: GTCATCTAACTTCTTAC (sugars l3 d11 l3, PS)
- target mRNA inhibition (Human Neuronal Cell, 0.2 µM): 45%
- target mRNA inhibition (Human Neuronal Cell, 1 µM): 46%

Sequence: TTTTTTTCTTACTATCTTCA (sugars l1 d2 l2 d13 l2, PS)
- target mRNA inhibition (Human Neuronal Cell, 7.5 µM): 43%

Sequence: AAAGATCATTCTCAACAA (sugars l5 d10 l3, PS)
- target mRNA inhibition (Human Neuronal Cell, 7.5 µM): 64%

Sequence: TTGATTCAATTCCCTTA (sugars ldllddddddddlddll, PS)
- target mRNA inhibition (Human Neuronal Cell, 7.5 µM): 62%

Sequence: TCTTTCCATTTATTTCCAT (sugars l2 d14 l3, PS)
- target mRNA inhibition (Human Neuronal Cell, 7.5 µM): 43%

Sequence: AATTTTTTTCTTACTATCTT (sugars llddlldddddddldlldll, PS)
- target mRNA inhibition (Human Neuronal Cell, 7.5 µM): 61%

Sequence: GCACATTCTTTCTATACC (sugars l1 d4 l1 d10 l2, PS)
- target mRNA inhibition (Human Neuronal Cell, 7.5 µM): 45%

Sequence: CTTTCCATTTATTTCCATTT (sugars ldddddddddddddldldll, PS)
- target mRNA inhibition (Human Neuronal Cell, 7.5 µM): 47%

Sequence: ATATTGATTCAATTCCC (sugars ldddlddddddllddll, PS)
- target mRNA inhibition (Human Neuronal Cell, 7.5 µM): 62%

Sequence: TACATCTCATACTTGC (sugars l4 d10 l2, PS)
- target mRNA inhibition (Mouse Primary Neuronal Cell, 0.005 µM): 97%

Sequence: TTTATACCTTTCTTTAACCC (sugars lddddlddddddddddldll, PS)
- target mRNA inhibition (Human Neuronal Cell, 7.5 µM): 63%

Sequence: ATTTCATATTACTAACTA (sugars l2 d12 l4, PS)
- target mRNA inhibition (Human Neuronal Cell, 0.2 µM): 3%
- target mRNA inhibition (Human Neuronal Cell, 1 µM): 20%

Sequence: CCCATTTCTAACATTTAC (sugars l3 d12 l3, PS)
- target mRNA inhibition (Human Neuronal Cell, 0.2 µM): 50%
- target mRNA inhibition (Human Neuronal Cell, 1 µM): 64%

Sequence: AGCAACATTATTAACCAC (sugars l1 d3 l1 d7 l6, PS)
- target mRNA inhibition (Human Neuronal Cell, 7.5 µM): 41%

Sequence: CTGTTTATACCCTTTCCA (sugars l1 d3 l1 d11 l2, PS)
- target mRNA inhibition (Human Neuronal Cell, 7.5 µM): 50%

Sequence: CTTTTAACCAGAGTGGCAT (sugars l3 d13 l3, PS)
- target mRNA inhibition (Human Neuronal Cell, 7.5 µM): 62%

Sequence: CCTTAGTATTACAATT (sugars l4 d10 l2, PS)
- target mRNA inhibition (Human Neuronal Cell, 0.2 µM): 58%
- target mRNA inhibition (Human Neuronal Cell, 1 µM): 71%

Sequence: GCACATTCTTTCTATACC (sugars l1 d4 l1 d9 l3, PS)
- target mRNA inhibition (Human Neuronal Cell, 7.5 µM): 59%

Sequence: TGTACTTTCCTTTACCA (sugars l2 d13 l2, PS)
- target mRNA inhibition (Human Neuronal Cell, 0.2 µM): 33%
- target mRNA inhibition (Human Neuronal Cell, 1 µM): 59%

Sequence: CTGTATACACCATCCCA (sugars ldldlddddddddldll, PS)
- target mRNA inhibition (Human Neuronal Cell, 7.5 µM): 62%

Sequence: TTTATACCCTTTCCAA (sugars l2 d10 l4, PS)
- target mRNA inhibition (Human Neuronal Cell, 0.2 µM): 55%
- target mRNA inhibition (Human Neuronal Cell, 1 µM): 63%
